Consider four molecules from ChEMBL document CHEMBL1156590, “Stereoselectivity of binding of alpha-(N-benzylamino)benzylphosphonic acids to prostatic acid phosphatase” (Bioorg Med Chem Lett, 2008).

Each structure is given as a SMILES string.

The target in the assay is T1, Prostatic acid phosphatase (Homo sapiens, UniProt P15309).
T1 sequence (P15309 whole entry): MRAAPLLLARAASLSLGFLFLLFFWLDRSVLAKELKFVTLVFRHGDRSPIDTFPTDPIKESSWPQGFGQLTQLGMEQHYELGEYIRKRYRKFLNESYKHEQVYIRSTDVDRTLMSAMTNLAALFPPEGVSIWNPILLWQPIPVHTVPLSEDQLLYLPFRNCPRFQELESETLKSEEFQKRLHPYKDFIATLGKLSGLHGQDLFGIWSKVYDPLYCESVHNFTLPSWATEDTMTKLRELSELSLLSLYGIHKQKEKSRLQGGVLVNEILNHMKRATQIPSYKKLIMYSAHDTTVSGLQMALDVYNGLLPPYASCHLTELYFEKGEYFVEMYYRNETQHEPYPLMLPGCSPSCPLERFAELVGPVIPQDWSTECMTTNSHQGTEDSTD
The assay can be described thus: Inhibition of human prostatic acid phosphatase.
The term IC50 denotes the concentration needed to halve the response being measured. Read a low IC50 as inhibition by little substance. On to `C[C@H](N[C@@H](c1ccccc1)P(=O)(O)O)c1ccccc1`, for which the IC50 was found to be 1210 nM. The result for `C[C@@H](N[C@H](c1ccccc1)P(=O)(O)O)c1ccccc1` reads 26 nM; that for `COc1ccc([C@@H](N[C@H](C)c2ccccc2)P(=O)(O)O)cc1`, 18 nM; that for `COc1ccc([C@H](N[C@@H](C)c2ccccc2)P(=O)(O)O)cc1`, 1070 nM.
